The text below walks through data of patent US20180098969A1, “HODGKIN LYMPHOMA THERAPY” (Purdue Pharmaceutical Products L.P., priority 2016, published 2018).

The test system of test [1] is L428 cells. Briefly: Cytogenetic investigation of cells from xenografted mice. In kind it is in vivo, NSG mice. The following applies: different doses including single 60 mg/kg. Here is the method:
Separated cells were cultured in the presence of RPMI 1640 supplemented with 10% Fetal Calf Serum (FCS) and antibiotics, colcemid (0.1 μg/ml) added 2 h before harvesting, and the slides with metaphase chromosomes prepared following the standard methanol/acetic acid (3/1, v/v) procedure.
Four new cell lines were generated after one month of in vitro culture following 24 hour of exposure to EDO-S101. Fluorescence in situ hybridysation (FISH) was performed using a combination of standard procedures from the recommended protocols for chromosomal analysis, following telomere and centromere staining, using peptide nucleic acid (PNA) probes in order to detect unstable chromosomal aberrations and to delimit the chromosome territory. M-FISH was performed using multi-FISH probes (Metasystems GmbH, Altlussheim, Germany), according to the manufacturer's recommendations on the same slide. Images of hybridized metaphases were captured using a charge coupled device camera (Zeiss, Thornwood, N.Y.) coupled to a Zeiss Axioplan microscope and processed using ISIS software (Metasystems).
The ocular tumour masses were harvested, as well as cells which infiltrated the liver. Five new cell lines were established from ocular tumours and the livers of both control mice (PBS or vehicle). […]

Test [2] concerns L1236 cell line. Briefly: Cell cycle checkpoint proteins and gene expression. Type of test: cell-based, human. The following applies: EDO-S101 alone. Here is the method: (§1) 1.56 μM of EDO-S101 was administered to two Hodgkin lymphoma cell lines, the bendamustine naïve cell line L1236 and the bendamustine resistant cell line R100. In a second experiment, Brentuximab Vedotin was administered at a concentration of 3.12 μg/ml to the L1236 cell line and at a concentration of 0.39 μg/ml to the R100 cell line. Finally, in a third experiment EDO-S101 and Brentuximab Vedotin were administered in combination to each of the two cell lines at the same concentrations that they were administered in the monotherapy experiments.

Test [3] has as its system Hodgkin lymphoma cell lines (KMH2, HDML2, L540, L1236 and L426). Briefly: IC50 comparison of bendamustine, vorinostat and EDO-S101. In kind it is cell-based, human. The following applies: tumour cells of Hodgkin lymphoma. The method, then:
(a) Five Hodgkin lymphoma cell lines (KMH2, HDML2, L540, L1236 and L426) were cultured separately in the presence of bendamustine, vorinostat and EDO-S101 dissolved in DMSO at 37° C. L1236-derived Hodgkin lymphoma cell lines were selected as they have an acquired stable resistance to bendamustine (R100) or an ability to display continuous growth upon extended exposure to sub-lethal concentrations of bendamustine (R25, R50 and R75). A detailed description of the L1236-R Hodgkin lymphoma cell lines is disclosed in De Filippi et al, ASH 2015, Abstract. # 2479. In these tests, the L1236-100R bendamustine resistant strain was used.

Test [4] concerns R100 cell line. Briefly: ATM/ATR transcripts. In kind it is cell-based, human. The following applies: EDO-S101 alone. Here is the method: as §1
Test [5] relates to L428. Briefly: Clonogenic survival in methylcellulose. Type of test: cell-based, human. The following applies: very low doses 0.1 and 0.5 μmol. The method, then:
(§2) In all examples, the human Hodgkin lymphoma-derived cell lines L428, L428-c, KMH2, L591, L540, L1236, HDLM2 and SUP-HD were obtained from Dr Steffen Junker (Aarhus University Denmark). All cell lines were cultured in Gibco RPMI 1640 medium supplemented with Glutamax, 10% FBS and antibiotics at 37° C. […] The immunophenotype, P53 status and MSI characterization of the Hodgkin lymphoma cell lines was determined using anti-CD30, CD15, CD20 and CD14 antibodies.
(§3) This test was performed on four Hodgkin lymphoma cell lines (L428, L428s, KMH2 and L540). Each was cultured with EDO-S101 at doses of 0, 0.1, 0.5, 1, 10 and 20 μmol in DMSO. The cell lines were cultured in methylcellulose (Stem cell Technologies) at a concentration of 10^5/ml at 37° C. and 5% CO2. The surviving fraction was determined by measuring the viability of colonies generated before and after exposure. Only colonies with more than 50 cells were counted. Each data point represents the average and SD from three independent experiments performed in triplicate.

The test system of test [6] is L540 cell line. Briefly: Clonogenic survival in methylcellulose. In kind it is cell-based, human. The following applies: any dose (0.1 to 20 μmol). Here is the method:
as §2, §3

Test [7] concerns KMH2 cell line. Briefly: Clonogenic survival in methylcellulose. In kind it is cell-based, human. The following applies: lowest doses 0.1 and 0.5 μmol. The method, then: as §2, §3
In test [8] the test system is L428s. Briefly: Clonogenic survival in methylcellulose. In kind it is cell-based, human. The following applies: very low doses 0.1 and 0.5 μmol. The method, then: as §2, §3

For the molecule `Cn1c(CCCCCCC(=O)NO)nc2cc(N(CCCl)CCCl)ccc21` [EDO-S101], in test [1], the “metaphases or cell lines from cells of treated mice” value is reported as “not possible to obtain either metaphases from direct culture or establish cell lines”. Further, the “effect on cell cycle checkpoint proteins” value in test [2] was “activated cell cycle checkpoint proteins”. Further, the “IC50s compared with those of bendamustine” value in test [3] was “about ten-fold lower”. In addition, in test [4], the “effect on ATM/ATR unbalance” value is “upregulating ATR and downregulating ATM transcripts”. The clones observed entry is on record as “only macrophagic clones being observed” in test [5], “No clone was observed” in test [6], “only a few clones” in test [7] and “only macrophagic clones being observed” in test [8].
